What was measured:
[1] = system: different signaling molecules; assay: Western blot analysis of signaling; type: cell-based; conditions: n=1
Experimental: In light of the previously reported role of uPAR in signaling, the effect of IPR-993, IPR-737, IPR-81 and IPR-69 on signaling was studied by Western blot analysis (FIG. 23). A concentration-dependent study was carried out for IPR-737.

[2] = system: MMP-9; assay: Gelatin zymography of MDA-MB-231 conditioned medium; type: cell-based, human
Experimental: Gelatin Zymography. MDA-MB-231 cells were treated with different concentrations of uPAR compounds in serum free medium for 24 h, the conditioned medium were collected, concentrated by Amicon Ultra centrifugal filter units (Millipore, #UFC500324), proteins were normalized and electrophoresed on sodium dodecyl sulfate (SDS)-polyacrylamide gels (10%) containing 1 mg/mL gelatin. After electrophoresis, the gel was washed twice in 50 mM Tris-HCl (pH 7.6) containing 5 mM CaCl2 and 2.5% Triton X-100 for 30 minutes at room temperature and incubated in buffer that contained 50 mM Tris-HCl (pH 7.6), 200 mM NaCl, 10 mM CaCl2 at 37° C. for 36 h. Then, the gels were stained with 0.05% Coomassie brilliant blue (CBB) and destained with 30% methanol in 10% acetic acid. Areas of gelatinolytic degradation appeared as transparent bands on the blue stained background of the gel. Data were quantified using Image J.
To degrade collagen within the ECM, malignant cells unleash a series of extracelullar proteases known as matrix metalloproteinases (MMPs).

[3] = molecular target: CYP2C9 (Homo sapiens, UniProt P11712); assay: Fluorescence-based CYP2C9 inhibition assay; conditions: human
CYP2C9, sequence (P11712 whole entry): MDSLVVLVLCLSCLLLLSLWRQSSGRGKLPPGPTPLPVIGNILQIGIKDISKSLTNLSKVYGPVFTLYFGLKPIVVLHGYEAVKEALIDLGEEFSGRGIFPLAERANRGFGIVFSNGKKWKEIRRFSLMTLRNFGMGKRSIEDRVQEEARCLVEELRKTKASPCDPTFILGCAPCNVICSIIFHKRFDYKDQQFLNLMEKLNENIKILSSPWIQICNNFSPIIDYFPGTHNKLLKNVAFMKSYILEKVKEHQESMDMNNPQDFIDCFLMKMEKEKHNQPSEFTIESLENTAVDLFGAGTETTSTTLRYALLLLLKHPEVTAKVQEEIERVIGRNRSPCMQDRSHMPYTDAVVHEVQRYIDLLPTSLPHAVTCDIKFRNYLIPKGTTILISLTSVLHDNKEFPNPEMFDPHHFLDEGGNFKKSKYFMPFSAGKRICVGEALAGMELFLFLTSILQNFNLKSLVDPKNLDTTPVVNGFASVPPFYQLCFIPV
Experimental: CYP metabolism was measured using a fluorescence-based assay designed by Cohen et al.,^41 recently implemented by Invitrogen (Carlsbad, Calif.).

[4] = In vivo PK study, plasma HPLC MS/MS; design: species or system mouse; conditions: mice
Experimental: Pharmacokinetics of the Leads in Rodents. A method to quantify IPR-69 in plasma was developed using HPLC-MS/MS (API 3200; Applied Biosystems). A 20 μL plasma sample was extracted with methyl tertiary butyl ether (MTBE) under neutral conditions (0.1 M phosphate buffer pH=7.4) using temazepam as the internal standard. The extract is evaporated, reconstituted with mobile phase and injected into the HPLC. The HPLC column is a C-8 50×4.6 mm 5-μm column and separation of UPR and temazepam occurred by a linear gradient mobile phase starting with acetonitrile:0.1% formic acid (10:90) and changing to 80:20. The m/z Q1 and Q3 settings on the API 3200 for UPR and temazepam are 418/297 and 301/255, respectively. The lower limit of quantification of IPR-69 is 1 ng/mL using 20 μL of plasma. A standard response curve of IPR-69 was created with concentrations that varied from 1 ng/mL to 1000 ng/mL using 300 ng/mL of temazepam for each sample. To determine drug concentrations of the lead inhibitors in the pharmacological models, the PK properties of the compounds in mice must be characterized. The PK of IPR-69 was determined in NOD/SCID mice following a single dose given PO. The study design used 3 mice per time point. Blood was collected at time intervals from 0 to 24 hours after dosing (8 time points), quantified by the procedure described above. Pharmacokinetic parameters for IPR-69 including area under the curve (AUC), area under the moment curve (AUMC), and t1/2 were estimated using non-compartmental methods with Excel®. The maximum plasma concentration (Cmax) and time of Cmax (tmax) were obtained from the data. The AUC from zero to infinity (AUC0-∞) was estimated from the AUC0-t (time zero to the last quantifiable concentration Clast) and the AUC from Clast to infinity, Clast/kel, where kel is the rate constant of elimination. The AUMC0-∞ was estimated by an analogous manner. The systemic clearance (Cl/F, where F=bioavailability) of IPR-69 was calculated from the dose and AUC0-∞. […]

[5] = system: MDA-MB-231 cells; assay: Adhesion assay on fibronectin-coated wells; type: cell-based, human; conditions: Homo sapiens; MDA-MB-231, fibronectin
Experimental: Adhesion Assay. Quantitative cell adhesion assays were carried out in nontissue culture treated 96-well microtiter plates (Evergreen Scientific, Los Angeles, Calif.) which were coated with 15 μg/mL fibronectin (Sigma) for 1 h at room temperature. Fibronectin coated and uncoated control wells were blocked for 1 h with 3% heat denatured bovine serum albumin (BSA) at 37° C. Cells were split one day prior to the experiment to achieve a subconfluent culture. […] The wells were washed and the number of adherent cells was quantified by crystal violet staining at 570 nm.^19,20 The results were shown by means±SE.

[6] = system: MDA-MB-231 cells; assay: Migration assay (Boyden chamber without Matrigel); type: cell-based; conditions: Homo sapiens
Experimental: Invasion and Migration Assays. These assays were performed using BD BioCoat Matrigel Invasion Chamber (Cat. 354480, BD Biosciences, Bedford, Mass.). The undersurface of the inserts was coated with 30 μg/mL of fibronectin (Sigma, F2006) in PBS at 4° C. overnight. The inserts were washed with PBS once. Then, 0.5 mL of serum-free medium was separately added to the upper and lower chambers to equilibrate the Matrigel invasion chambers at 37° C., 5% CO2 for 2 hours. After starvated with serumfree DMEM or 4 hours, subconfluent MDA-MB-231 cells were trypsinized and resuspended in 0.1% FBS DMEM. 5×10^4 cells in 500 μL of 0.1% FBS DMEM containing various compounds or 1.0% DMSO (as control) were added to the upper chambers. […] We incubated the invasion chambers for 3 hours at 37° C., 5% CO2. Non-invaded cells were removed from the upper chamber with a cotton swab. The invaded cells were fixed with 100% methanol and then stained with Hematoxylin Stain Harris Modified Method (Fisher, SH30-500D). The filters were washed with water 3 times. Filters were air dried and the invaded cells were counted in ten randomly selected microscopic fields (×200 magnification). The experiment was performed in triplicate per group and shown by mean±SE.

Cc1cc(C)cc(NC(=O)c2cnn(-c3ccc(C(C)C)cc3)c2C2CCNCC2)c1 [IPR-69, N-(3,5-dimethylphenyl)-1-(4-isopropylphenyl)-5-(piperidin-4-yl)-1H-pyrazole-4-carboxamide]
effect on signaling molecules [1]: did not seem to be much of an effect
MMP-9 activity in gelatin zymography [2]: some inhibition of MMP-9
IC50 ([2]; estimated, read-out: IC50 for inhibition of MMP-9 activity): 25 µM
inhibition of CYP2C9 [3]: little inhibition of CYP2C9
half-life ([4]; NOD/SCID, mouse, plasma, estimated, single oral gavage of 50 mg/kg): ~2 h
oral bioavailability [4]: orally bioavailable
time of maximum level ([4]; single oral gavage of 50 mg/kg): approximately 5 hours
IC50 [5]: 45 µM
IC50 [6]: 40 µM

Source: patent US9745288B2, “Compounds and methods for treating cancer by inhibiting the urokinase receptor” (Indiana University Research and Technology Corporation, priority 2011, dated 2017)
